Reference: patent publication US12239780B2, “Bi-dose nasal spray” (AKROSWISS AG, priority 2018, dated 2025)

Assays:
[1] = Bioavailability and plasma concentration after midazolam from the bi-dose nasal spray
claustrophobic patients = settings: cited from earlier work
[2] = aqueous solution, depending on content of active agent; cited from earlier work
[3] = nasal administration, no first pass effect; cited from earlier work

## Cc1ncc2n1-c1ccc(Cl)cc1C(c1ccccc1F)=NC2 [midazolam, 8-chloro-6-(2-fluorophenyl)-1-methyl-4H-imidazole[1,5-a][1,4]-benzodiazepine]
[1]; bi-dose nasal spray, intranasal
  time after administration at which a significant plasma concentration is achieved: 2 min
[1]; human, plasma, inhaled or intranasal
  bioavailability: > 83%
Claustrophobic patients; 72 patients, oral 7.5 mg (TG1) or intranasal 1.0 to 2.0 mg (TG2)
  MRI examinations carried out successfully and without relevant side effects: 97%
Claustrophobic patients; intranasal 1-2 mg versus oral 7.5 mg, p<0.001
  MRI imaging quality, intranasal group TG2 compared to oral group TG1: significantly higher
Claustrophobic patients; intranasal 1-2 mg versus oral 7.5 mg
  anxiolytic effect of nasally administered versus orally administered form: significantly superior
[2]
  pH below which the solution of the active agent is stable (precipitates at higher pH): < 3.8 pH
[3]
  bioavailability using a nasal spray: about 80%
